The values that follow come from the NIST ThermoML archive (doi:10.1016/j.jct.2015.04.005).

± gives the expanded uncertainty stated by the source.

For data set [1] the following is noted: 102.24 kPa, Liquid, Frequency=5 MHz, Single path-length method.
Data set [2] in a line: xn = mol fraction of the nth substance listed. Particulars: 102.24 kPa, Liquid, x2 = 0; for speed of sound: Frequency=5 MHz, Single path-length method; for mass density: Vibrating tube method.

What is called speed of sound is how fast a sound wave travels through the sample. Regarding `CCC(=O)[O-].C[NH2+]CCO` [2-hydroxy-N-methylethanaminium propionate], the speed of sound in data set [1] (293.15 K) is on record as 1656.9 ± 8.1 m/s; in data set [1] (298.15 K) it was 1638.4 ± 8.1 m/s; in data set [1] (303.15 K), 1624.6 ± 8.1 m/s; in data set [1] (308.15 K), 1607 ± 8.1 m/s; in data set [1] (313.15 K), 1588.5 ± 8.1 m/s; in data set [1] (318.15 K) it was 1573.2 ± 8.1 m/s. The speed of sound came to 1558.3 ± 8.1 m/s in data set [1] (323.15 K); 1543.7 ± 8.1 m/s in data set [1] (328.15 K); 1527 ± 8.1 m/s in data set [1] (333.15 K); 1507.1 ± 8.1 m/s in data set [1] (338.15 K); 1492.6 ± 8.1 m/s in data set [1] (343.15 K).

A word on the mass density: it is mass per unit of volume. Turning to `O` [water] + CCC(=O)[O-].C[NH2+]CCO, the speed of sound in data set [2] (313.15 K) came to 1528.9 ± 8 m/s; in data set [2] (328.15 K), 1547.4 ± 8 m/s; in data set [2] (333.15 K) it was 1551 ± 8 m/s. Also, the mass density in data set [2] (323.15 K) is listed as 988 ± 1.7 kg/m3; in data set [2] (328.15 K), 985.7 ± 1.7 kg/m3; in data set [2] (333.15 K), 983.2 ± 1.7 kg/m3.
